Reference: patent US20140212487A1, “SOLID DISPERSION FORMULATION OF AN ANTIVIRAL COMPOUND” (priority 2013, published 2014)
Like-named read-outs stand apart in the source and are kept apart here.

Legend:
[1] = Pharmacokinetics after oral administration of tablets in beagle dogs; format: in vivo; set-up: AUC0-24, mean (RSD) / F / AUC(0-t): dose or concentration left out as unconfirmed; conditions: pentagastrin pretreatment
Description: A series of in vivo experiments were conducted to evaluate the potential benefit of the solid dispersion approach relative to conventional formulations, as well as to optimize the solid dispersion by identifying the most beneficial polymer type and relative polymer concentration within the dispersion.
Pentagastrin is a synthetic polypeptide that stimulates the secretion of gastric acid, pepsin, and intrinsic factor. […]

clinical = conditions: in vivo, 30 mg; for half-life: t1/2, conventional formulation, median; for AUC(0-inf): AUCinf; for AUC(0-inf) / AUC(0-t) / Cmax / Vd/F: conventional formulation; for AUC(0-t): AUClast; for Vd/F: Vz/F
[2] = Chemical stability in the ethanolic feed solution
[3] = Solubility of ledipasvir in spray dry feed solvents; format: physicochemical; conditions: organic solvent or mixture
Description: The feed solution was initially evaluated for appropriate solvent with regard to solubility, stability, and viscosity. […] Ethanolic and DCM-based feed stocks were assessed for preparation ease and spray dried at a range of inlet and outlet temperatures to assess the robustness of the spray dry process. Both solvents gave rapid dissolution of ledipasvir and copovidone.

HCV [4] = test: Antiviral response for dose selection of ledipasvir in HCV infected subjects; format: in vivo, Hepatitis C virus
Description: The maximum median HCV RNA log 10 reduction was 3 or greater for all cohorts dosed with >3 mg of ledipasvir. […] Therefore, 30 mg and 90 mg of ledipasvir were selected as the dose for the formulations described herein.

[5] = Aqueous solubility screening of ledipasvir in the presence of polymers; format: physicochemical
Description: Solubility screening experiments were performed for ledipasvir in the presence of a variety of polymers, including hydroxypropyl cellulose, hypromellose, povidone and copovidone. […] Hypromellose, povidone, and copovidone increased the solubility of ledipasvir. […] Thus, in one embodiment, the polymer is selected from hypromellose, povidone, and copovidone.

HCV [6] = test: Breakthrough (BT) rate of ledipasvir in combination with other therapeutic agents; format: in vivo, Hepatitis C virus
Description: Therefore, the 90 mg dose of ledipasvir may confer a greater antiviral coverage that prevents viral breakthrough.

[7] = conventional formulation; for Clast, mean: 30 mg single dose
[8] = po, Geometric Least Squares Mean (GLSM), fasted
[9] = po, Geometric Least Squares Mean (GLSM), fed
[10] = po, mean, 30 mg single dose, fasted
[11] = po, mean, 30 mg single dose, fed (high-fat meal)
[12] = 30 mg, high-fat meal versus fasted

Molecule `COC(=O)N[C@H](C(=O)N1CC2(CC2)C[C@H]1c1ncc(-c2ccc3c(c2)C(F)(F)c2cc(-c4ccc5nc([C@@H]6[C@H]7CC[C@H](C7)N6C(=O)[C@@H](NC(=O)OC)C(C)C)[nH]c5c4)ccc2-3)[nH]1)C(C)C` [Amorphous Free base] has an AUC(0-t) ([1]; dog, in vivo, read-out: AUC0-24, mean (RSD)) of 8.03 µM·h, a Cmax ([1]; dog, in vivo, read-out: Cmax, mean (RSD)) of 743 nM and an F [1] of 71%.
With `COC(=O)N[C@H](C(=O)N1CC2(CC2)C[C@H]1c1ncc(-c2ccc3c(c2)C(F)(F)c2cc(-c4ccc5nc([C@@H]6[C@H]7CC[C@H](C7)N6C(=O)[C@@H](NC(=O)OC)C(C)C)[nH]c5c4)ccc2-3)[nH]1)C(C)C.O=C(O)C(O)C(O)C(=O)O` [Crystalline D-tartrate] the “AUC0-24, mean (RSD)” value [1] was 7623 (44) nM * hr and the F [1] was 67%.
`COC(=O)N[C@H](C(=O)N1CC2(CC2)C[C@H]1c1ncc(-c2ccc3c(c2)C(F)(F)c2cc(-c4ccc5nc([C@@H]6[C@H]7CC[C@H](C7)N6C(=O)[C@@H](NC(=O)OC)C(C)C)[nH]c5c4)ccc2-3)[nH]1)C(C)C` [Ledipasvir, (1-{3-[6-(9,9-difluoro-7-{2-[5-(2-methoxycarbonylamino-3-methyl-butyryl)-5-aza-spiro[2.4]hept-6-yl]-3H-imidazol-4-yl}-9H-fluoren-2-yl)-1H-benzoimidazol-2-yl]-2-aza-bicyclo[2.2.1]heptane-2-carbonyl}-2-methyl-propyl)-carbamic acid methyl ester] gave a half-life (clinical; 30 mg single dose, fasted) of 39.8 h, a half-life (clinical; 30 mg single dose, fed (high-fat meal)) of 36.8 h and a Tmax (clinical; po) of 6 h. For the same molecule, the AUC(0-inf) (clinical; [8]) was 2060 ng·h/mL, the AUC(0-inf) (clinical; [9]) was 1140 ng·h/mL and the AUC(0-inf) (clinical; [10]) was 2420 ng·h/mL. The AUC(0-inf) (clinical; [11]) was 1180 ng·h/mL, the AUC(0-t) (clinical; [8]) was 1720 ng·h/mL and the AUC(0-t) (clinical; [9]) was 978 ng·h/mL. The AUC(0-t) (clinical; [10]) was 1990 ng·h/mL, the AUC(0-t) (clinical; [11]) was 996 ng·h/mL and the Cmax (clinical; [8]) was 65.3 ng/mL. It also gave a Cmax (clinical; [9]) of 35.9 ng/mL, a Cmax (clinical; [10]) of 73.1 ng/mL and a Cmax (clinical; [11]) of 36.5 ng/mL. For the same molecule, the Vd/F (clinical; [10]) was 877 L, the Vd/F (clinical; [11]) was 1390 L and the “chemical stability in the ethanolic feed solution” value [2] was “good chemical stability”. For the same molecule, the solubility ([3]; dichloromethane (DCM)) was greater than 500 mg/mL, the solubility ([3]; ethanol) was greater than 500 mg/mL and the solubility ([3]; methanol) was greater than 500 mg/mL. The “maximum median HCV RNA log 10 reduction” value (HCV [4]; all cohorts dosed with >3 mg of ledipasvir) was no less than 3 log 10, the “fraction of maximal antiviral response (Emax PK/PD model)” value (HCV [4]; exposures after 30 mg dose, genotype 1a HCV infected subjects) was greater than 95% and the “increase of aqueous solubility of ledipasvir” value (shortened to “increase”) ([5]; pH 5, 0.1% w/w copovidone) was 10 fold. For the same molecule, the “increase” value ([5]; pH 5, 0.1% w/w hypromellose) was 3 fold, the “increase” value ([5]; pH 5, 0.1% w/w povidone) was 4 fold and the “breakthrough (BT) rate” value (HCV [6]; 30 mg ledipasvir in combination with other therapeutic agents, 11/33) was 33%. For the same molecule, the “breakthrough (BT) rate” value (HCV [6]; 90 mg ledipasvir in combination with other therapeutic agents, 9/74) was 12%, the “Clast, mean” value ([7]; fasted) was 6.8 ng/mL and the “Clast, mean” value ([7]; fed (high-fat meal)) was 3.1 ng/mL. For the same molecule, the “decrease in mean AUCinf” value [7, 12] was “approximately 45%”, the “decrease in mean AUClast” value [7, 12] was “approximately 45%” and the “decrease in mean Cmax” value [7, 12] was “approximately 45%”.
